Numbers after ± are expanded uncertainties.
Tests used:
[1] = 101 kPa, Liquid; for speed of sound: Frequency=2 MHz; for mass density: Pycnometric method
[2] = xn = mol fraction of the nth substance listed; conditions: 101 kPa, Liquid; for speed of sound: Frequency=2 MHz; for mass density: Pycnometric method
[3] = 298.15 K, Linear variable-path acoustic interferometer
[4] = 303.15 K, Linear variable-path acoustic interferometer
[5] = 308.15 K, Linear variable-path acoustic interferometer
[6] = 313.15 K, Linear variable-path acoustic interferometer

With `OCCOCCO` [diethylene glycol] the speed of sound ([1]; 298.15 K) was 1579.3 ± 8.5 m/s, the mass density ([1]; 298.15 K) was 1112.7 ± 0.7 kg/m3 and the speed of sound ([1]; 303.15 K) was 1568 ± 8.4 m/s. For the same molecule, the mass density ([1]; 303.15 K) was 1109.3 ± 0.7 kg/m3, the speed of sound ([1]; 308.15 K) was 1557.3 ± 8.3 m/s and the mass density ([1]; 308.15 K) was 1105.9 ± 0.7 kg/m3. For the same molecule, the speed of sound ([1]; 313.15 K) was 1546.1 ± 8.3 m/s and the mass density ([1]; 313.15 K) was 1102.5 ± 0.7 kg/m3.

`CCCCO` [butan-1-ol] + OCCOCCO showed a speed of sound ([2]; 298.15 K, x2 = 0) of 1241.1 ± 6.7 m/s, a mass density ([2]; 298.15 K, x2 = 0) of 805.6 ± 0.6 kg/m3 and a speed of sound ([2]; 303.15 K, x2 = 0) of 1223.8 ± 6.6 m/s. It also gave a mass density ([2]; 303.15 K, x2 = 0) of 801.9 ± 0.6 kg/m3, a speed of sound ([2]; 308.15 K, x2 = 0) of 1205.8 ± 6.5 m/s and a mass density ([2]; 308.15 K, x2 = 0) of 798.2 ± 0.6 kg/m3. It also gave a speed of sound ([2]; 313.15 K, x2 = 0) of 1188.8 ± 6.4 m/s and a mass density ([2]; 313.15 K, x2 = 0) of 794.5 ± 0.6 kg/m3.

In the case of `CCC(C)O` (stereo unspecified) [butan-2-ol], the speed of sound [1, 3] is reported as 1212.2 ± 6.2 m/s, the mass density ([1]; 298.15 K) is reported as 802.4 ± 0.6 kg/m3 and the speed of sound [1, 4] is reported as 1194.1 ± 6.1 m/s. For the same molecule, the mass density ([1]; 303.15 K) was 798.3 ± 0.7 kg/m3, the speed of sound [1, 5] was 1175.3 ± 6 m/s and the mass density ([1]; 308.15 K) was 794.2 ± 0.7 kg/m3. The speed of sound [1, 6] was 1157.4 ± 5.9 m/s and the mass density ([1]; 313.15 K) was 790.1 ± 0.7 kg/m3.

`OCCCCO` [1,4-butanediol] gave a speed of sound [1, 3] of 1601.6 ± 8.2 m/s, a mass density ([1]; 298.15 K) of 1012.6 ± 0.6 kg/m3 and a speed of sound [1, 4] of 1589.3 ± 8.1 m/s. It also gave a mass density ([1]; 303.15 K) of 1009.6 ± 0.6 kg/m3, a speed of sound [1, 5] of 1577.7 ± 8 m/s and a mass density ([1]; 308.15 K) of 1006.7 ± 0.6 kg/m3. The speed of sound [1, 6] was 1565.6 ± 8 m/s and the mass density ([1]; 313.15 K) was 1003.7 ± 0.6 kg/m3.

`OCCOCCO` [diethylene glycol] + OCCCCO gave a speed of sound ([2]; 298.15 K, Linear variable-path acoustic interferometer, x1 = 1) of 1579.3 ± 8.1 m/s, a mass density ([2]; 298.15 K, x1 = 1) of 1112.7 ± 0.7 kg/m3 and a speed of sound ([2]; 303.15 K, Linear variable-path acoustic interferometer, x1 = 1) of 1568 ± 8 m/s. For the same molecule, the mass density ([2]; 303.15 K, x1 = 1) was 1109.3 ± 0.7 kg/m3, the speed of sound ([2]; 308.15 K, Linear variable-path acoustic interferometer, x1 = 1) was 1557.3 ± 8 m/s and the mass density ([2]; 308.15 K, x1 = 1) was 1105.9 ± 0.7 kg/m3. The speed of sound ([2]; 313.15 K, Linear variable-path acoustic interferometer, x1 = 1) was 1546.1 ± 7.9 m/s and the mass density ([2]; 313.15 K, x1 = 1) was 1102.5 ± 0.7 kg/m3.

For `CCC(C)O` (stereo unspecified) [butan-2-ol] + OCCOCCO, the speed of sound ([2]; 298.15 K, Linear variable-path acoustic interferometer, x2 = 0) was 1212.2 ± 6.2 m/s, the mass density ([2]; 298.15 K, x2 = 0) was 802.4 ± 0.6 kg/m3 and the speed of sound ([2]; 303.15 K, Linear variable-path acoustic interferometer, x2 = 0) was 1194.1 ± 6.1 m/s. The mass density ([2]; 303.15 K, x2 = 0) was 798.3 ± 0.7 kg/m3, the speed of sound ([2]; 308.15 K, Linear variable-path acoustic interferometer, x2 = 0) was 1175.3 ± 6 m/s and the mass density ([2]; 308.15 K, x2 = 0) was 794.2 ± 0.7 kg/m3. It also gave a speed of sound ([2]; 313.15 K, Linear variable-path acoustic interferometer, x2 = 0) of 1157.4 ± 5.9 m/s and a mass density ([2]; 313.15 K, x2 = 0) of 790.1 ± 0.7 kg/m3.

`CCCCO` [butan-1-ol] showed a speed of sound ([1]; 298.15 K) of 1241.1 ± 6.7 m/s, a mass density ([1]; 298.15 K) of 805.6 ± 0.6 kg/m3 and a speed of sound ([1]; 303.15 K) of 1223.8 ± 6.6 m/s. The mass density ([1]; 303.15 K) was 801.9 ± 0.6 kg/m3, the speed of sound ([1]; 308.15 K) was 1205.8 ± 6.5 m/s and the mass density ([1]; 308.15 K) was 798.2 ± 0.6 kg/m3. The speed of sound ([1]; 313.15 K) was 1188.8 ± 6.4 m/s and the mass density ([1]; 313.15 K) was 794.5 ± 0.6 kg/m3.

Source: the NIST ThermoML archive (doi:10.1007/s10765-015-1980-6)
